Measured values taken from patent US20130071432A1 (priority 2011, published 2013).

Key:
VSV = settings: mouse, in vivo; cited from earlier work
[1] = target: T1, full length RNase L activated by 2-5A (Homo sapiens, UniProt Q05823); assay: biochemical
T1 sequence (Q05823 1-741): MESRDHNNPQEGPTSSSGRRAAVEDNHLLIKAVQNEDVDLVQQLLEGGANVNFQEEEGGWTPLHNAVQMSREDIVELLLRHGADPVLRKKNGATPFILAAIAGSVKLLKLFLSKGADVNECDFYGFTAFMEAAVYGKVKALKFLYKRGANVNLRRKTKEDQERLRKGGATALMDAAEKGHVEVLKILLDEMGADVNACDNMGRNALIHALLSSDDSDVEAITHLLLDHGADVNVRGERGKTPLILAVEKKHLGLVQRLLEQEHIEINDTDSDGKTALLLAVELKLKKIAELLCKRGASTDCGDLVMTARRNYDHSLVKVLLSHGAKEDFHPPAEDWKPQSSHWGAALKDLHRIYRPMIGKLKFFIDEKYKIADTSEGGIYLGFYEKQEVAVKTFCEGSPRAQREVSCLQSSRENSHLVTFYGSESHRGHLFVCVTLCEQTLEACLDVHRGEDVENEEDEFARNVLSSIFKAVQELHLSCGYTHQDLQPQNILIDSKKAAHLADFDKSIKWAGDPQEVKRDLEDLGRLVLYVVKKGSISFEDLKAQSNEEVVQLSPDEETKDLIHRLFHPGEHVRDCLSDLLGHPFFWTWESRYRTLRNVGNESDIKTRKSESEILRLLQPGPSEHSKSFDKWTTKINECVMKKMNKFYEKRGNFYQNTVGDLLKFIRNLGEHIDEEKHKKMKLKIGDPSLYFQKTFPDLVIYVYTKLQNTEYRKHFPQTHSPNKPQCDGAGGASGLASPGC

in vitro [2] = settings: human
[3] = in vivo; cited from earlier work
in vitro [4] = settings: human; remark: listed apart in the source
[5] = target: T2, constitutively active, truncated mutant RNase L(NΔ335) (Homo sapiens, UniProt Q05823); assay: biochemical
T2 sequence (Q05823 336-741 limits assumed): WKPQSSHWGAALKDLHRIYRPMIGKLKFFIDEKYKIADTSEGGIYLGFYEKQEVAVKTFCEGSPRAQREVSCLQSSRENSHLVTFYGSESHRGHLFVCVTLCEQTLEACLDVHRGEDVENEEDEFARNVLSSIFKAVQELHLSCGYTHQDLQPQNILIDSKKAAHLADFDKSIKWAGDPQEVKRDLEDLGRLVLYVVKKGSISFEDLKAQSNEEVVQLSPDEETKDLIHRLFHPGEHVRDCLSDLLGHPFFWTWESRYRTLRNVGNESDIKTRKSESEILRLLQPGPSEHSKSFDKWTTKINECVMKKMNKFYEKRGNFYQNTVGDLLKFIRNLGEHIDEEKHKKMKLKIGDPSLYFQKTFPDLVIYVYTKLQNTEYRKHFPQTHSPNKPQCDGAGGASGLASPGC

in vitro [6] = settings: human, mouse, reduction in cell viability

| Compound | induction of antiviral antibodies against VSV challenge (VSV) | IC50 [1] [µM] | cytotoxicity (in vitro [2]) [%] | serum concentrations [3] | cytotoxicity (in vitro [4]) [%] | IC50 [5] [µM] | cytotoxicity (in vitro [6]) [%] |
| --- | --- | --- | --- | --- | --- | --- | --- |
| O=P1(N(CCCl)CCCl)NCCCO1 (stereo not shown) [CPA, cyclophosphamide] | completely suppressed induction of antiviral antibodies |  |  |  |  |  |  |
| CCN(CC)CCNC(=O)c1c(C)[nH]c(/C=C2\C(=O)Nc3ccc(F)cc32)c1C [sunitinib] |  | 1.4 | 60 | equivalent to those of patients | 60 | 1.4 | ~20 |
